According to patent publication US20080009418A1, “Selective Inhibitors” (Alchemia LTD., priority 2004, published 2008):

Tests used:
Human κ-Opioid (KOP) = molecular target: T1, Human κ-Opioid (KOP) (Homo sapiens, UniProt P41145); assay: Radioligand binding, human κ-opioid (KOP) membranes, filtration, [3H]-Diprenorphine; settings: compound at 10 μM, [3H]-Diprenorphine
T1 construct: purchased Perkin Elmer Biosignal
In short: (§1)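 Percent inhibition of radioligand binding measured on recombinant human membranes: NK1 with [125I]-Substance P, KOP with [3H]-Diprenorphine. Incubation 1 h at room temperature, then harvest onto 0.3% PEI-soaked filters, cold Tris-HCl pH 7.4 washes and scintillation counting; non-specific binding from reference ligand wells.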

Human Melanocortin (MC4) = molecular target: T2, Human Melanocortin (MC4) (Homo sapiens, UniProt P32245); assay: Radioligand binding, human melanocortin MC4 membranes, FlashPlate, [125I]-NDP-αMSH; settings: compound at 10 μM, [125I]-NDP-αMSH
T2 construct: purchased Perkin Elmer Biosignal
T2 sequence (P32245 whole entry): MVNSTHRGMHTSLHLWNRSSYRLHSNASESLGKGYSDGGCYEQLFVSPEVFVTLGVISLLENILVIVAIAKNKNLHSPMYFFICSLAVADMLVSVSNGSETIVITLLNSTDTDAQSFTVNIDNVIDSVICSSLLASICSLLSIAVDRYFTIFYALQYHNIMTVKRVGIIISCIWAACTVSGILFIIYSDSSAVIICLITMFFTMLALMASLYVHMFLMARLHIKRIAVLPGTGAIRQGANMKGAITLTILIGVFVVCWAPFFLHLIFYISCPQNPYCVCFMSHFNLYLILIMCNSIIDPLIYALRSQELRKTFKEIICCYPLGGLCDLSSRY
In short: (§2)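 Cloned human receptor membranes were coated onto FlashPlate wells and incubated with radioligand and compound (added from a 0.5 mM DMSO daughter plate) for 1 hour at room temperature in the dark. Scintillation counting gave percent inhibition, with DMSO defining total and reference ligand defining non-specific binding.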

Mouse urotensin (mUR2) = molecular target: T3, Mouse urotensin (mUR2) (Mus musculus, UniProt Q8VIH9); assay: Radioligand binding, mouse urotensin mUR2 membranes, FlashPlate, [125I]-Urotensin II; settings: compound at 10 μM, [125I]-Urotensin II
T3 construct: purchased Perkin Elmer Biosignal
T3 sequence (Q8VIH9 1-385): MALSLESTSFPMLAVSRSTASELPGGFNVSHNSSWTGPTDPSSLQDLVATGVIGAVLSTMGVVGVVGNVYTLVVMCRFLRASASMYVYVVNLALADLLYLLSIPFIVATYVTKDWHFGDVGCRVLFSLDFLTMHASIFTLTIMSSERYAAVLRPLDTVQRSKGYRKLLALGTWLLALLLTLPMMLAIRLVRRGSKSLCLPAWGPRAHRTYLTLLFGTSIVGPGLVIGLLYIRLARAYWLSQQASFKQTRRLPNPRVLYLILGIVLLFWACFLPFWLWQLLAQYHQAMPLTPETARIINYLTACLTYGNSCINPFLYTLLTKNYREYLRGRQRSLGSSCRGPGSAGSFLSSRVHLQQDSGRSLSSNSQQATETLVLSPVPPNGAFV
In short: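 Cloned mouse urotensin (mUR2) receptor membranes from Perkin Elmer Biosignal were immobilized in FlashPlate microplates using a proprietary coating. Each well got 19.5 μl buffer, then 0.5 μl of DMSO, reference ligand, or compound. Adding 5 μl of [125I]-Urotensin II, diluted to 5× final concentration in binding buffer, started binding. Plates were sealed with TopSeal-A and incubated 1 hour at room temperature in the dark. Wells were counted for 30 seconds each on a TopCount after a 60-second delay, and percentage inhibition was calculated.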

Human δ-opioid (DOP) = molecular target: T4, Human δ-opioid (DOP) (Homo sapiens, UniProt P41143); assay: Radioligand binding, human δ-opioid (DOP) membranes, FlashPlate, [3H]-Bremazocine; settings: compound at 10 μM, [3H]-Bremazocine
T4 construct: purchased Perkin Elmer Biosignal
T4 sequence (P41143 whole entry): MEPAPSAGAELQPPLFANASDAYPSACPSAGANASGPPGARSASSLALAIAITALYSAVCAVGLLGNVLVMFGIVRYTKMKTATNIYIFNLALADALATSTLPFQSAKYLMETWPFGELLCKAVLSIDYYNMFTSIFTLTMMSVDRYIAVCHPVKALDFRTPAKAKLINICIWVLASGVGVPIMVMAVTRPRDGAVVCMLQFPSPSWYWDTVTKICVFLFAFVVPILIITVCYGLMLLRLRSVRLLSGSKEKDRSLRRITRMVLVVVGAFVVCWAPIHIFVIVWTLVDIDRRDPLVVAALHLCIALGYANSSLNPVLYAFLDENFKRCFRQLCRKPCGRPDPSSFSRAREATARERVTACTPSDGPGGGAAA
In short: as §2

[1] = molecular target: T5, Human neuropeptide Y (NPY-Y1) (Homo sapiens, UniProt P25929); assay: Radioligand binding, human neuropeptide Y NPY-Y1 membranes, FlashPlate, [125I]-PYY; settings: compound at 10 μM, [125I]-PYY
T5 construct: purchased Perkin Elmer Biosignal
T5 sequence (P25929 1-384): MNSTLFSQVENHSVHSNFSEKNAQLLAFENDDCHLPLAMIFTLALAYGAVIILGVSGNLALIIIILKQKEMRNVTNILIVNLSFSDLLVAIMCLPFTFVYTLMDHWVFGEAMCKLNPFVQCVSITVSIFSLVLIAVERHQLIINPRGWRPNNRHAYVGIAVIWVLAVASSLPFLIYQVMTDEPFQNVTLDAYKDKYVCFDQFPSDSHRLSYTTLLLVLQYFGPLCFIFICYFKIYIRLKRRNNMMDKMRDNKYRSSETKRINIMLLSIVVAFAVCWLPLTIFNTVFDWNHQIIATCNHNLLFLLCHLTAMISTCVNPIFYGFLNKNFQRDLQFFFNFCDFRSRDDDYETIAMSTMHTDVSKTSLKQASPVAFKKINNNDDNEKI
In short: as §2

Human Melanocortin (MC3) = molecular target: T6, Human Melanocortin (MC3) (Homo sapiens, UniProt P41968); assay: Radioligand binding, human melanocortin MC3 membranes, FlashPlate, [125I]-NDP-αMSH; settings: compound at 10 μM, [125I]-NDP-αMSH
T6 construct: purchased Perkin Elmer Biosignal
T6 sequence (P41968 whole entry): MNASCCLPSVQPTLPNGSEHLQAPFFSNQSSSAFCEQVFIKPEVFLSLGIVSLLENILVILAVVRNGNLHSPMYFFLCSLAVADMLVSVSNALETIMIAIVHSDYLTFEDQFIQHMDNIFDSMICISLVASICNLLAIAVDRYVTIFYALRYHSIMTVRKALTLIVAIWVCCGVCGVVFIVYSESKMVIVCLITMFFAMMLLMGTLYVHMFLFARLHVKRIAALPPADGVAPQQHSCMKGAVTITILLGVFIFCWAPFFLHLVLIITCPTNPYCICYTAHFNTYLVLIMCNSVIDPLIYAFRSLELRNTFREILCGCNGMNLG
In short: as §2

Human μ-opioid (MOP) = molecular target: T7, Human μ-opioid (MOP) (Homo sapiens, UniProt P35372); assay: Radioligand binding, human μ-opioid (MOP) membranes, FlashPlate, [3H]-Naloxone; settings: compound at 10 μM, [3H]-Naloxone
T7 construct: purchased Perkin Elmer Biosignal
T7 sequence (P35372 whole entry): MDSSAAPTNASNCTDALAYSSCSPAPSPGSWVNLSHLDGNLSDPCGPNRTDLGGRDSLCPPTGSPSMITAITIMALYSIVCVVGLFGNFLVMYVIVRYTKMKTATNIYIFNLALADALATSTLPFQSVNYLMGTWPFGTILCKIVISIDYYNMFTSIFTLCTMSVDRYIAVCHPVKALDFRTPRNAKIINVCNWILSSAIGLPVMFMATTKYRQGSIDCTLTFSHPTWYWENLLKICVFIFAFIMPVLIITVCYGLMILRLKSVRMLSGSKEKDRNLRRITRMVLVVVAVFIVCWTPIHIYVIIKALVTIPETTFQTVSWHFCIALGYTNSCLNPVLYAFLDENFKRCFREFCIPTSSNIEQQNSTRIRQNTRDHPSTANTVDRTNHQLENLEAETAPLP
In short: as §2

Human neurokinin (NK1) = molecular target: T8, Human neurokinin (NK1) (Homo sapiens, UniProt P25103); assay: Radioligand binding, human neurokinin NK1 membranes, filtration, [125I]-Substance P; settings: compound at 10 μM, [125I]-Substance P
T8 construct: purchased Perkin Elmer Biosignal
T8 sequence (P25103 whole entry): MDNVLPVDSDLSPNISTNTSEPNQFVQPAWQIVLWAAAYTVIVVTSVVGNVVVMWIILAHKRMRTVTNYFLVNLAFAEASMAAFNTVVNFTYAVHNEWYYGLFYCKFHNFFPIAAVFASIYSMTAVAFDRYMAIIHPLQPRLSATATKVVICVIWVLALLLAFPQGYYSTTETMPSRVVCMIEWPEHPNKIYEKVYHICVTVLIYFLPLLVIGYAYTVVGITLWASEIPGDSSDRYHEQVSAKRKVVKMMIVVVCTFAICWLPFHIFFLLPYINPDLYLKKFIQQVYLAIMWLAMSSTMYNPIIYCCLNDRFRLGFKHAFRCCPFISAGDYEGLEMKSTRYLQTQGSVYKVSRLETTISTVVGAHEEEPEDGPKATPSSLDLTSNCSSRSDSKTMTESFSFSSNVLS
In short: as §1

Human opioid (ORL1) = molecular target: T9, Human opioid (ORL1) (Homo sapiens, UniProt P41146); assay: Radioligand binding, human opioid ORL1 membranes, FlashPlate, [125I]-Nociceptin; settings: compound at 10 μM, [125I]-Nociceptin
T9 construct: purchased Perkin Elmer Biosignal
T9 sequence (P41146 whole entry): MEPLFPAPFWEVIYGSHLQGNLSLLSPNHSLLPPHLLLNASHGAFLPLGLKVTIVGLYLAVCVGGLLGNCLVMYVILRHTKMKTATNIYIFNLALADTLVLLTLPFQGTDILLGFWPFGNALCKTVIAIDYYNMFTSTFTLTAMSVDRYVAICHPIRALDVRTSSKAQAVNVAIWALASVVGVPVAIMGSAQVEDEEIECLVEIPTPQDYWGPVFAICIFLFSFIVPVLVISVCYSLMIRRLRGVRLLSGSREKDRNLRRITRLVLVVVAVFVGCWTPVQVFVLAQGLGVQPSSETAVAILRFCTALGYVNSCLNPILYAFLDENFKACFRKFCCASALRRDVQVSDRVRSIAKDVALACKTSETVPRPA
In short: as §2

Human melanocortin (MC5) = molecular target: T10, Human melanocortin (MC5) (Homo sapiens, UniProt P33032); assay: Radioligand binding, human melanocortin MC5 membranes, FlashPlate, [125I]-NDP-αMSH; settings: compound at 10 μM, [125I]-NDP-αMSH
T10 construct: purchased Perkin Elmer Biosignal
T10 sequence (P33032 whole entry): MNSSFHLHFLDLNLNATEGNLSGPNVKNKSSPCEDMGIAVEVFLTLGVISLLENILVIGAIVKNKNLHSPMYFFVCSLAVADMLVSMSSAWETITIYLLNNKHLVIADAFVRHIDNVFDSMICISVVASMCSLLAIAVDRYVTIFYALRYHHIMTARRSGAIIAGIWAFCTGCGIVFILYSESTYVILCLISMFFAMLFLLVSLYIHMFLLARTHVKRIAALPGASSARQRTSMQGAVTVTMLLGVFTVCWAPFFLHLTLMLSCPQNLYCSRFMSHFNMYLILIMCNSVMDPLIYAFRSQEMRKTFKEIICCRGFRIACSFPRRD
In short: as §2

[2] = molecular target: T11, Human melanin-concentrating hormone (MCH1) (Homo sapiens, UniProt Q99705); assay: Radioligand binding, human melanin-concentrating hormone MCH1 membranes, FlashPlate, [125I]-S36057; settings: compound at 10 μM
T11 construct: purchased Perkin Elmer Biosignal
T11 sequence (Q99705 whole entry): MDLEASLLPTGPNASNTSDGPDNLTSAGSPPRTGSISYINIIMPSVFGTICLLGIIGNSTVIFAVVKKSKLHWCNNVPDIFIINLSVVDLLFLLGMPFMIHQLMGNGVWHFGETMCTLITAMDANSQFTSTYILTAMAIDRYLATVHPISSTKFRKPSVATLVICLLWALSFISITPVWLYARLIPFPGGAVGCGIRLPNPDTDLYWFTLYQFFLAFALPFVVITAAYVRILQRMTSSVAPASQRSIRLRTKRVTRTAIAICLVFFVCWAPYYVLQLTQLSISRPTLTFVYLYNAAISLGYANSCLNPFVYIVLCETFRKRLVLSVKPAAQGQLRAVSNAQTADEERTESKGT
In short: as §2

T1 sequence (P41145 whole entry): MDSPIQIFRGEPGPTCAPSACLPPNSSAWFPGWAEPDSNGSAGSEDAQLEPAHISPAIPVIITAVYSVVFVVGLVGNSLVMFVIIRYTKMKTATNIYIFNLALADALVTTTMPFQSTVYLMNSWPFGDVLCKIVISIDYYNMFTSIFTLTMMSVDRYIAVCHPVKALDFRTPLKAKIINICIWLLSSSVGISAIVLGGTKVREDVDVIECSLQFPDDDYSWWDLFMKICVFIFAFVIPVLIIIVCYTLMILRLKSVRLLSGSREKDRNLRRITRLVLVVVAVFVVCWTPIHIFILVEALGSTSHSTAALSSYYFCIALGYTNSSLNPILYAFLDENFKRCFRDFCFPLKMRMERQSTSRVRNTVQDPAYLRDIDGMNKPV

SMILES | A2: inhibition of radioligand binding, human κ-opioid (KOP) (Human κ-Opioid (KOP)) | A4: inhibition of radioligand binding, human melanocortin (MC4) (Human Melanocortin (MC4)) | A11: inhibition of radioligand binding, mouse urotensin (mUR2) (Mouse urotensin (mUR2)) | A1: inhibition of radioligand binding, human δ-opioid (DOP) (Human δ-opioid (DOP)) | A9: inhibition of radioligand binding, human neuropeptide Y (NPY-Y1) [1] | A3: inhibition of radioligand binding, human melanocortin (MC3) (Human Melanocortin (MC3)) | A7: inhibition of radioligand binding, human μ-opioid (MOP) (Human μ-opioid (MOP)) | A8: inhibition of radioligand binding, human neurokinin (NK1) (Human neurokinin (NK1)) | A10: inhibition of radioligand binding, human opioid (ORL1) (Human opioid (ORL1)) | A6: inhibition of radioligand binding, human melanin-concentrating hormone (MCH1) ([2]; [125I]-S36057) | A5: inhibition of radioligand binding, human melanocortin (MC5) (Human melanocortin (MC5)) | also measured
CSC1OC(COCc2cccc(N)c2)C(O)C(OCc2ccccc2)C1NC(=O)Cc1ccccc1 (stereo not shown) [compound 330] | − (“−” indicates less than 50% inhibition at 10 μM) | − (“−” indicates less than 50% inhibition at 10 μM) | − (“−” indicates less than 50% inhibition at 10 μM) | − (“−” indicates less than 50% inhibition at 10 μM) | − (“−” indicates less than 50% inhibition at 10 μM) | − (“−” indicates less than 50% inhibition at 10 μM) | − (“−” indicates less than 50% inhibition at 10 μM) | + (“+” indicates greater than 50% inhibition at 10 μM) | − (“−” indicates less than 50% inhibition at 10 μM) | − (“−” indicates less than 50% inhibition at 10 μM) |  | A5: inhibition of radioligand binding, human melanocortin (MC5) (Human melanocortin (MC5); 10 µM): − (“−” indicates less than 50% inhibition at 10 μM)
CSC1O[C@H](COCc2ccc(Cl)cc2)[C@@H](O)[C@@H](OCc2ccc(-c3ccccc3)cc2)[C@H]1NC(=O)CCCNC(=N)N (stereo partly shown) [compound 292] | − (“−” indicates less than 50% inhibition at 10 μM) | − (“−” indicates less than 50% inhibition at 10 μM) | − (“−” indicates less than 50% inhibition at 10 μM) | − (“−” indicates less than 50% inhibition at 10 μM) | − (“−” indicates less than 50% inhibition at 10 μM) | − (“−” indicates less than 50% inhibition at 10 μM) | − (“−” indicates less than 50% inhibition at 10 μM) | + (“+” indicates greater than 50% inhibition at 10 μM) | − (“−” indicates less than 50% inhibition at 10 μM) | − (“−” indicates less than 50% inhibition at 10 μM) | + (“+” indicates greater than 50% inhibition at 10 μM) | 
COC1C(O)C(COCc2ccc3ccccc3c2)OC(OCc2ccc(Cl)cc2)C1NC(=O)C1CCCN(C(=N)N)C1 (stereo not shown) [compound 348] | − (“−” indicates less than 50% inhibition at 10 μM) | − (“−” indicates less than 50% inhibition at 10 μM) | − (“−” indicates less than 50% inhibition at 10 μM) | − (“−” indicates less than 50% inhibition at 10 μM) | − (“−” indicates less than 50% inhibition at 10 μM) | − (“−” indicates less than 50% inhibition at 10 μM) | − (“−” indicates less than 50% inhibition at 10 μM) | + (“+” indicates greater than 50% inhibition at 10 μM) | − (“−” indicates less than 50% inhibition at 10 μM) | − (“−” indicates less than 50% inhibition at 10 μM) | + (“+” indicates greater than 50% inhibition at 10 μM) | 
COCC1OC(OCc2ccc3ccccc3c2)C(NC(=O)CCNC(=N)N)C(OCc2ccc3ccccc3c2)C1O (stereo not shown) [compound 249] |  |  |  |  |  |  |  |  |  |  |  | A2: inhibition of radioligand binding (Human κ-Opioid (KOP); filtration): − (“−” indicates less than 50% inhibition at 10 μM); A4: inhibition of radioligand binding (Human Melanocortin (MC4); FlashPlate): + (“+” indicates greater than 50% inhibition at 10 μM); A11: inhibition of radioligand binding (Mouse urotensin (mUR2); FlashPlate): − (“−” indicates less than 50% inhibition at 10 μM); A1: inhibition of radioligand binding (Human δ-opioid (DOP); FlashPlate): − (“−” indicates less than 50% inhibition at 10 μM); A9: inhibition of radioligand binding ([1]; FlashPlate): − (“−” indicates less than 50% inhibition at 10 μM); A3: inhibition of radioligand binding (Human Melanocortin (MC3); FlashPlate): + (“+” indicates greater than 50% inhibition at 10 μM); A7: inhibition of radioligand binding (Human μ-opioid (MOP); FlashPlate): + (“+” indicates greater than 50% inhibition at 10 μM); A8: inhibition of radioligand binding (Human neurokinin (NK1); filtration): + (“+” indicates greater than 50% inhibition at 10 μM); A10: inhibition of radioligand binding (Human opioid (ORL1); FlashPlate): − (“−” indicates less than 50% inhibition at 10 μM); A5: inhibition of radioligand binding (Human melanocortin (MC5); FlashPlate): + (“+” indicates greater than 50% inhibition at 10 μM); A6: inhibition of radioligand binding ([2]; [125I]-S36057, FlashPlate): + (“+” indicates greater than 50% inhibition at 10 μM)
CO[C@H]1[C@H](O)[C@@H](COCc2ccc(Cl)cc2)OC(OCc2cccc(O)c2)[C@@H]1NC(=O)CCCN (stereo partly shown) [compound 169] |  |  |  |  |  |  |  |  |  |  |  | A2 radioligand binding, percentage inhibition (Human κ-Opioid (KOP)): − (“−” indicates less than 50% inhibition at 10 μM); A4 radioligand binding, percentage inhibition (Human Melanocortin (MC4)): − (“−” indicates less than 50% inhibition at 10 μM); A11 radioligand binding, percentage inhibition (Mouse urotensin (mUR2)): − (“−” indicates less than 50% inhibition at 10 μM); A1 radioligand binding, percentage inhibition (Human δ-opioid (DOP)): − (“−” indicates less than 50% inhibition at 10 μM); A9 radioligand binding, percentage inhibition [1]: − (“−” indicates less than 50% inhibition at 10 μM); A3 radioligand binding, percentage inhibition (Human Melanocortin (MC3)): − (“−” indicates less than 50% inhibition at 10 μM); A7 radioligand binding, percentage inhibition (Human μ-opioid (MOP)): − (“−” indicates less than 50% inhibition at 10 μM); A8 radioligand binding, percentage inhibition (Human neurokinin (NK1)): + (“+” indicates greater than 50% inhibition at 10 μM); A10 radioligand binding, percentage inhibition (Human opioid (ORL1)): − (“−” indicates less than 50% inhibition at 10 μM); A5 radioligand binding, percentage inhibition (Human melanocortin (MC5)): − (“−” indicates less than 50% inhibition at 10 μM); A6 radioligand binding, percentage inhibition ([2]; [125I]-S36057): − (“−” indicates less than 50% inhibition at 10 μM)
